Assay results: PubChem BioAssay AID1960 (Broad Institute, 2009)
Records with an inconclusive call do not appear. Calls of active or inactive are those of the source. No rule for the calls is given here.

These compounds were tested against Zinc finger protein mex-5 (Caenorhabditis elegans) (UniProt Q9XUB2) (assay: potency of MEX-5 RNA-binding blockers – biochemical, fluorescence polarization, dose response (AID 1960)). Settings: MEX-5/FITC-TCR2 RNA fluorescence polarization, 1 h.
Zinc finger protein mex-5 (Caenorhabditis elegans), sequence (Q9XUB2 whole entry, looked up): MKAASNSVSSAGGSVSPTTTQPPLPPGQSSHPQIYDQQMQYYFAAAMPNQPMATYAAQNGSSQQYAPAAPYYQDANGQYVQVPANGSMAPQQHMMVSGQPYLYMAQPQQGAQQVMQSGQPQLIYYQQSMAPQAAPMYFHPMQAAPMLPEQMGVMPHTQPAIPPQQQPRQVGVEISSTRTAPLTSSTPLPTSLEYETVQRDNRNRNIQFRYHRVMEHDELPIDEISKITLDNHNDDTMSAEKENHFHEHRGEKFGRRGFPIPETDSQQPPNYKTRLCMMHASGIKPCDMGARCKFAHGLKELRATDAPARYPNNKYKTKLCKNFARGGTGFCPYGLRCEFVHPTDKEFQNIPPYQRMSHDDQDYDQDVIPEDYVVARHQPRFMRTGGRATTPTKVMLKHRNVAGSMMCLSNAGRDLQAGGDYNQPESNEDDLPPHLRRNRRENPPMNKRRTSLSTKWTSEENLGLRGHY

SMILES | EC50
CC[C@H](C)/C=C(C)/C=C/C1=CC2=C(Cl)C(=O)[C@@](C)(OC(C)=O)C(=O)C2=CO1 | 17.8 µM
Cc1cc(/C=C2/C(=O)NC(=O)N(Cc3ccco3)C2=O)c(C)n1-c1ccc(C(=O)O)cc1 | > 30 µM (inactive)
CCC(C)/C=C(C)/C=C/C1=CC2=C(Cl)C(=O)C(C)(OC(C)=O)C(=O)C2=CO1 (centres undefined) | > 30 µM (inactive)
CCN(CC)c1ccc(N=Cc2c(O)n(Cc3ccccc3)c(=O)[nH]c2=O)cc1 | > 30 µM (inactive)
